Structures can show the parent of a compound that is named as a salt.
Molecular target: CCR2 (Homo sapiens (Human), UniProt P41597)
Assay: MCP-1 Receptor Binding Assay in THP-1 Cells
Settings: 0.5 nM 125I labeled MCP-1, 2 hours at 30° C., average of the two most similar values where more than one IC50, read-out: Inhibition of MCP-1 Binding IC50 CCR2 Binding
Procedure: Compounds of the invention were subjected to various representative biological tests. […] MCP-1 Receptor Binding Assay in THP-1 Cells Human monocytic cell line THP-1 cells were obtained from American Type Culture Collection (Manassas, Va., USA). The THP-1 cells were grown in RPMI-1640 (RPMI: Roswell Park Memorial Institute Medium-cell culture growth media) supplemented with 10% fetal bovine serum in a humidified 5% CO2 atmosphere at 37° C. The cell density was maintained between […].
THP-1 (cells were incubated with 0.5 nM ^125I labeled MCP-1 (Perkin-Elmer Life Sciences, Inc. Boston, Mass.) in the presence of varying concentrations of either unlabeled MCP-1 (R & D Systems, Minneapolis, Minn.) or test compound for 2 hours at 30° C. in a 96 well plate. Cells were then harvested onto a filter plate, dried, and 20 μL of Microscint 20 was added to each well. Plates were counted in a TopCount NXT, Microplate Scintillation & Luminescence Counter (Perkin-Elmer Life Sciences, Inc. Boston, Mass.). Blank values (buffer only) were subtracted from all values and drug treated values were compared to vehicle treated values. 1 μM cold MCP-1 was used for nonspecific binding.

Chain of CCR2 (P41597 other isoform, or with tags, fused parts or gaps isoform P41597-2): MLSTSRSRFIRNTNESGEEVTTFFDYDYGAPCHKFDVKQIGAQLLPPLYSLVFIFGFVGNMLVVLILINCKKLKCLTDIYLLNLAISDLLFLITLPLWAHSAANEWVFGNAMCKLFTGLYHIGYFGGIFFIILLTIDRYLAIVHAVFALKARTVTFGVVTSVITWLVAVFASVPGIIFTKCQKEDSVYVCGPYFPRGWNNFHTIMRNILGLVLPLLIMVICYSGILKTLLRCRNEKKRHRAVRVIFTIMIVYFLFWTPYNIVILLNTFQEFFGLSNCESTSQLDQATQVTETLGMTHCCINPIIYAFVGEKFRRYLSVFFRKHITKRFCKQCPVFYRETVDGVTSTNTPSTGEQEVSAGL

Row | SMILES | IC50 [nM]
1 | NC(=O)C(NC1CCC(c2c[nH]c3ccccc23)CC1)C1CCN(C(=O)/C=C/c2ccccc2F)CC1 (stereo not drawn) [Example 8, 2-[4-(1H-Indol-3-yl)-cyclohexylamino]-2-[1-(trans-2-fluorocinnamoyl)-piperidin-4-yl]-acetamide] | 270
2 | NC(=O)C(NC1CCC(c2c[nH]c3ccncc23)CC1)C1CCN(C(=O)/C=C/c2ccc(F)cc2)CC1 (single isomer, unassigned) [Example 47a, 2-[4-(1H-pyrrolo[3,2-c]pyridin-3-yl)cyclohexyl]amino-2-[1-(trans-4-fluorocinnamoyl)-piperidin-4-yl]-acetamide] | 405
3 | NC(=O)C(NC1CCC(c2c[nH]c3ncccc23)CC1)C1CCN(C(=O)/C=C/c2cc(F)c(F)c(F)c2)CC1 (stereo not drawn) [Example 44, 2-[4-(1H-pyrrolo[2,3-b]pyridin-3-yl)cyclohexyl]amino-2-[1-(trans-3,4,5-trifluorocinnamoyl)-piperidin-4-yl]-acetamide] | 132
4 | O=C(O)C(N[C@H]1CC[C@H](c2c[nH]c3ccccc32)CC1)C1CCN(C(=O)/C=C/c2cc(F)cc(F)c2)CC1 (stereo partly drawn) [Example 25, 2-[4-(1H-Indol-3-yl)-trans-cyclohexylamino]-2-[1-(trans-3,5-difluorocinnamoyl)-piperidin-4-yl]-acetic acid hydrochloride] | 220
5 | NC(=O)C(NC1CCC(c2c[nH]c3ccccc23)CC1)C1CCN(C(=O)/C=C/c2cccc(C(F)(F)F)c2)CC1 (stereo not drawn) [Example 10, 2-[4-(1H-Indol-3-yl)-cyclohexylamino]-2-[1-(trans-3-{trifluoromethyl}-cinnamoyl)piperidin-4-yl]-acetamide] | 75
6 | NC(=O)C(NC1CCC(c2c[nH]c3ccccc23)CC1)C1CCN(C(=O)/C=C/c2ccc(F)c(F)c2)CC1 (stereo not drawn) [Example 5, 2-[4-(1H-Indol-3-yl)-cyclohexylamino]-2-[1-(trans-3,4-difluorocinnamoyl)-piperidin-4-yl]-acetamide] | 21
7 | NC(=O)C(NC1CCC(c2c[nH]c3ncccc23)CC1)C1CCN(C(=O)/C=C/c2cc(F)cc(F)c2)CC1 (stereo not drawn) [Example 46, R,S-2-[4-(1H-pyrrolo[2,3-b]pyridin-3-yl)cyclohexyl]amino-2-[1-(trans-3,5-difluorocinnamoyl)-piperidin-4-yl]-acetamide] | 330
8 | NC(=O)C(NC1CCC(c2c[nH]c3ccccc23)CC1)C1CCN(C(=O)/C=C/c2ccc(F)cc2)CC1 (stereo not drawn) [Example 6, 2-[4-(1H-Indol-3-yl)-cyclohexylamino]-2-[1-(trans-4-fluorocinnamoyl)-piperidin-4-yl]-acetamide] | 19
9 | NC(=O)C(NC1CCC(c2c[nH]c3cccnc23)CC1)C1CCN(C(=O)/C=C/c2cc(F)c(F)c(F)c2)CC1 (single isomer, unassigned) [Example 39b, 2-[4-(1H-pyrrolo[3,2-b]pyridin-3-yl)cyclohexyl]amino-2-[1-(trans-3,4,5-trifluorocinnamoyl)-piperidin-4-yl]-acetamide] | 600
10 | NC(=O)C(NC1CCC(c2c[nH]c3cccnc23)CC1)C1CCN(C(=O)/C=C/c2cc(F)c(F)c(F)c2)CC1 (single isomer, unassigned) [Example 39a, 2-[4-(1H-pyrrolo[3,2-b]pyridin-3-yl)cyclohexyl]amino-2-[1-(trans-3,4,5-trifluorocinnamoyl)-piperidin-4-yl]-acetamide] | 25
11 | NC(=O)C(NC1CCC(c2c[nH]c3ccccc23)CC1)C1CCN(C(=O)/C=C/c2ccc3c(c2)CCCO3)CC1 (centres unmarked) [Example 33, 2-[4-(1H-indol-3-yl)-cyclohexylamino]-2-{1-[(2E)-3-(3,4-dihydro-2H-chromen-6-yl)prop-2-enoyl]piperidin-4-yl}acetamide] | 960
12 | NC(=O)C(NC1CCC(c2c[nH]c3ccncc23)CC1)C1CCN(C(=O)Nc2ccc(Cl)c(Cl)c2)CC1 (centres unmarked) [Example 40, 2-[4-(1H-pyrrolo[3,2-c]pyridin-3-yl)cyclohexyl]amino-2-[N-(3,4-dichlorophenyl)piperidine-1-carboxamid-4-yl]-acetamide] | 40
13 | COC(=O)C(NC1CCC(c2c[nH]c3ccccc23)CC1)C1CCN(C(=O)/C=C/c2cc(F)c(F)c(F)c2)CC1 (centres unmarked) [Example 49b] | 750
14 | O=C(O)C(N[C@H]1CC[C@H](c2c[nH]c3ccccc32)CC1)C1CCN(C(=O)/C=C/c2cc(F)c(F)c(F)c2)CC1 (stereo partly drawn) [Example 26, 2-[4-(1H-Indol-3-yl)-cyclohexylamino]-2-[1-(trans-3,4,5-trifluorocinnamoyl)-piperidin-4-yl]-acetic acid hydrochloride] | 20
15 | COc1ccc(C2CCC(NC(C(N)=O)C3CCN(C(=O)/C=C/c4cc(F)c(F)c(F)c4)CC3)CC2)cn1 (stereo not drawn) [Example 50, 2-[4-(6-methoxypyridin-3-yl)cyclohexyl]amino-2-[1-(trans-3,4,5-trifluorocinnamoyl)-piperidin-4-yl]-acetamide] | 635
16 | NC(=O)C(N[C@H]1CC[C@H](c2c[nH]c3cccnc32)CC1)C1CCN(C(=O)/C=C/c2ccccc2)CC1 (stereo partly drawn) [Example 43, R,S-2-[trans-4-(1H-pyrrolo[3,2-b]pyridin-3-yl)cyclohexyl]amino-2-[1-(trans-cinnamoyl)-piperidin-4-yl]-acetamide] | 122
17 | NC(=O)C(NC1CCC(c2c[nH]c3ccccc23)CC1)C1CCN(C(=O)/C=C/c2cccc(F)c2)CC1 (stereo not drawn) [Example 7, 2-[4-(1H-Indol-3-yl)-cyclohexylamino]-2-[1-(trans-3-fluorocinnamoyl)-piperidin-4-yl]-acetamide] | 23
18 | CSc1cccc(NC(=O)N2CCC(C(NC3CCC(c4c[nH]c5ccccc45)CC3)C(N)=O)CC2)c1 (centres unmarked) [Example 31, 2-[4-(1H-Indol-3-yl)-cyclohexylamino]-2-[N-(3-{methysulfanyl}phenyl)-piperidine-1-carboxamid-4-yl]-acetamide] | 710
19 | NC(=O)C(NC1CCC(c2c[nH]c3ccccc23)CC1)C1CCN(C(=O)/C=C/c2ccc3c(c2)OCCO3)CC1 (stereo not drawn) [Example 23, 2-[4-(1H-Indol-3-yl)-cyclohexylamino]-2-[1-(trans-3-[2,3-dihydro-1,4-benzodioxin-7-yl]prop-2-enoyl)piperidin-4-yl]-acetamide] | 602
20 | NC(=O)C(NC1CCC(c2c[nH]c3ccccc23)CC1)C1CCN(C(=O)/C=C/c2ccc(OC(F)(F)F)cc2)CC1 (stereo not drawn) [Example 21, 2-[4-(1H-Indol-3-yl)-cyclohexylamino]-2-[1-(trans-4-(trifluoromethoxy)cinnamoyl)piperidin-4-yl]-acetamide] | 492
21 | CCOC(=O)c1ccc(NC(=O)N2CCC(C(NC3CCC(c4c[nH]c5ccccc45)CC3)C(N)=O)CC2)cc1 (centres unmarked) [Example 22, 2-[4-(1H-Indol-3-yl)-cyclohexylamino]-2-[N-(4-{ethoxycarbonyl}-phenyl)piperidine-1-carboxamid-4-yl]-acetamide] | 553
22 | O=C(O)C(N[C@H]1CC[C@H](c2c[nH]c3ccccc32)CC1)C1CCN(C(=O)Nc2ccc(Cl)c(Cl)c2)CC1 (stereo partly drawn) [Example 27, 2-[4-(1H-Indol-3-yl)-trans-cyclohexylamino]-2-[N-(3,4-dichlorophenyl)-piperidine-1-carboxamid-4-yl]-acetic acid hydrochloride] | 230
23 | NC(=O)C(NC1CCC(c2c[nH]c3cccnc23)CC1)C1CCN(C(=O)Nc2ccc(Cl)c(Cl)c2)CC1 (stereo not drawn) [Example 42, 2-[trans-4-(1H-pyrrolo[3,2-b]pyridin-3-yl)cyclohexyl]amino-2-[N-(3,4-dichlorophenyl)piperidine-1-carboxamid-4-yl]-acetamide] | 87
24 | NC(=O)C(NC1CCC(c2c[nH]c3cccnc23)CC1)C1CCN(C(=O)/C=C/c2cc(F)cc(F)c2)CC1 (stereo not drawn) [Example 45, R,S-2-[trans-4-(1H-pyrrolo[3,2-b]pyridin-3-yl)cyclohexyl]amino-2-[1-(trans-3,5-difluorocinnamoyl)-piperidin-4-yl]-acetamide] | 130
25 | NC(=O)C(NC1CCC(c2c[nH]c3ccccc23)CC1)C1CCN(C(=O)/C=C/c2ccc3c(c2)CCO3)CC1 (stereo not drawn) [Example 15, 2-[4-(1H-Indol-3-yl)-cyclohexylamino]-2-[1-(trans-3-(2,3-dihydrobenzofuran-5-yl)prop-2-enoyl)piperidin-4-yl]-acetamide] | 149
26 | NC(=O)C(NC1CCC(c2c[nH]c3ccccc23)CC1)C1CCN(C(=O)/C=C/c2ccc(Cl)cc2)CC1 (stereo not drawn) [Example 14, 2-[4-(1H-Indol-3-yl)-cyclohexylamino]-2-[1-(trans-4-chloro-cinnamoyl)piperidin-4-yl]-acetamide] | 130
27 | NC(=O)C(N[C@H]1CC[C@H](c2c[nH]c3ccncc32)CC1)C1CCN(C(=O)/C=C/c2cc(F)c(F)c(F)c2)CC1 (stereo partly drawn) [Example 41, R,S-2-[trans-4-(1H-pyrrolo[3,2-c]pyridin-3-yl)cyclohexyl]amino-2-[1-(trans-3,4,5-trifluorocinnamoyl)-piperidin-4-yl]-acetamide] | 83
28 | O=C(NO)C(NC1CCC(c2c[nH]c3ccccc23)CC1)C1CCN(C(=O)/C=C/c2cc(F)c(F)c(F)c2)CC1 (stereo not drawn) [Example 51, N-Hydroxy-2-{[4-(1H-Indol-3-yl)-cyclohexylamino]-2-[1-(trans-3,4,5-trifluorocinnamoyl)-piperidin-4-yl]}-acetamide] | 665
29 | NC(=O)C(N[C@H]1CC[C@H](C2CNc3ccccc32)CC1)C1CCN(C(=O)/C=C/c2cc(F)c(F)c(F)c2)CC1 (stereo partly drawn) [Example 52, 2-{[4-(2,3-dihydro-1H-indol-3-yl)-trans-cyclohexylamino]-2-[1-(trans-3,4,5-trifluorocinnamoyl)-piperidin-4-yl]}-acetamide] | 950

From patent publication US8921559B2, “4-substituted-cyclohexylamino-4-piperidinyl-acetamide antagonists of CCR2” (Janssen Pharmaceutica NV, priority 2010, dated 2014)
